Test results: the supplement of paper PMC8967900

System: PF-382
Test: selective drug sensitivity score (sDSS, relative to normal bone marrow) (sDSS (score)); higher = more potent and effective on the cell line relative to normal bone marrow cells
Conditions: 72 h
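Further: ALL cell lines in 384-well plates, five doses spanning 10,000-fold, each plate scaled between vehicle and 100 µmol/L benzalkonium chloride controls, sDSS an adapted area-under-curve metric.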

Row | SMILES | selective drug sensitivity score
1 | Cc1ncc(-c2ccnc(Nc3ccc(S(C)(=O)=O)cc3)n2)n1C(C)C [AZD-5438] (top concentration 10000 nM) | -2.46
2 | NC[C@@](O)(c1ccc(Cl)cc1)c1ccc(-c2cn[nH]c2)cc1 (top concentration 10000 nM) | 1.28
3 | Cn1c(Nc2ccc(C(F)(F)F)cc2)nc2cc(Oc3ccnc(-c4ncc(C(F)(F)F)[nH]4)c3)ccc21 [NVP-RAF265] (top concentration 1000 nM) | 1.48
4 | CNCc1ccc(-c2[nH]c3cc(F)cc4c3c2CCNC4=O)cc1 [Rucaparib] (top concentration 10000 nM) | -0.58
5 | O=C(CCCCCCC(=O)Nc1ccc([C@H]2O[C@@H](CSc3nc(-c4ccccc4)c(-c4ccccc4)o3)C[C@@H](c3ccc(CO)cc3)O2)cc1)NO [Tubacin] (top concentration 10000 nM) | 8.14
6 | N#CCNC(=O)c1ccc(-c2ccnc(Nc3ccc(N4CCOCC4)cc3)n2)cc1 [Momelotinib] (top concentration 10000 nM) | -3.42
7 | Nc1cccc2c1CN(C1CCC(=O)NC1=O)C2=O (stereo not given) [Lenalidomide] (top concentration 100000 nM) | -2.28
8 | CCN1CCN(Cc2ccc(Nc3ncc(F)c(-c4cc(F)c5nc(C)n(C(C)C)c5c4)n3)nc2)CC1 [Abemaciclib] (top concentration 2500 nM) | -1.26
9 | Cc1cc(Nc2ncc(Cl)c(Nc3ccccc3S(=O)(=O)C(C)C)n2)c(OC(C)C)cc1C1CCNCC1 [Ceritinib] (top concentration 2500 nM) | -3.24

System: SUP-B15
Test: as above
Conditions: 72 h

Row | SMILES | selective drug sensitivity score
10 | Cn1cncc1[C@@](N)(c1ccc(Cl)cc1)c1ccc2c(c1)c(-c1cccc(Cl)c1)cc(=O)n2C [Tipifarnib] (top concentration 10000 nM) | 8.9
11 | COc1ccccc1S(=O)(=O)Nc1ccc2c(c1)CN(C)C(=O)N2 [PFI-1] (top concentration 30000 nM) | 8.5
12 | Cc1cn(-c2cc(NC(=O)c3ccc(C)c(Nc4nccc(-c5cnccn5)n4)c3)cc(C(F)(F)F)c2)cn1 [Radotinib] (top concentration 10000 nM) | 36.2
13 | CC[C@H](Nc1ncnc2[nH]cnc12)c1nc2cccc(F)c2c(=O)n1-c1ccccc1 [Idelalisib] (top concentration 10000 nM) | -2.16
14 | Cc1noc2c1-c1ccccc1C(c1ccc(Cl)cc1)=N[C@H]2CC(N)=O [CPI-0610] (top concentration 10000 nM) | 5.7
15 | C=C(c1ccc(C(=O)O)cc1)c1cc2c(cc1C)C(C)(C)CCC2(C)C [Bexarotene] (top concentration 10000 nM) | -4.8
16 | CC1(COc2ccc3c(c2)ncn3-c2ccc3cccc(N4CCC(N)CC4)c3n2)COC1 [Crenolanib] (top concentration 10000 nM) | 0.88
17 | O=C(Nc1cc(Oc2cc(F)c(NC(=O)C3(C(=O)Nc4ccc(F)cc4)CC3)cc2F)ccn1)C1CC1 [Altiratinib] (top concentration 10000 nM) | 6.64
18 | O=C(Nc1ccncc1)C(=O)c1cn(Cc2ccc(Cl)cc2)c2ccccc12 [Indibulin] (top concentration 10000 nM) | 11.8
19 | Cc1ncc(-c2ccnc(Nc3ccc(S(C)(=O)=O)cc3)n2)n1C(C)C [AZD-5438] (top concentration 10000 nM) | 9.74
20 | NC[C@@](O)(c1ccc(Cl)cc1)c1ccc(-c2cn[nH]c2)cc1 (top concentration 10000 nM) | 6.78
21 | Cn1c(Nc2ccc(C(F)(F)F)cc2)nc2cc(Oc3ccnc(-c4ncc(C(F)(F)F)[nH]4)c3)ccc21 [NVP-RAF265] (top concentration 1000 nM) | 7.78
22 | CNCc1ccc(-c2[nH]c3cc(F)cc4c3c2CCNC4=O)cc1 [Rucaparib] (top concentration 10000 nM) | 5.42
23 | O=C(CCCCCCC(=O)Nc1ccc([C@H]2O[C@@H](CSc3nc(-c4ccccc4)c(-c4ccccc4)o3)C[C@@H](c3ccc(CO)cc3)O2)cc1)NO [Tubacin] (top concentration 10000 nM) | 16.5
24 | N#CCNC(=O)c1ccc(-c2ccnc(Nc3ccc(N4CCOCC4)cc3)n2)cc1 [Momelotinib] (top concentration 10000 nM) | 0.88
25 | Nc1cccc2c1CN(C1CCC(=O)NC1=O)C2=O (stereo not given) [Lenalidomide] (top concentration 100000 nM) | -2.28
26 | CCN1CCN(Cc2ccc(Nc3ncc(F)c(-c4cc(F)c5nc(C)n(C(C)C)c5c4)n3)nc2)CC1 [Abemaciclib] (top concentration 2500 nM) | 6.74
27 | Cc1cc(Nc2ncc(Cl)c(Nc3ccccc3S(=O)(=O)C(C)C)n2)c(OC(C)C)cc1C1CCNCC1 [Ceritinib] (top concentration 2500 nM) | -3.44

System: MOLT-4
Test: as above
Conditions: 72 h

Row | SMILES | selective drug sensitivity score
28 | Cn1cncc1[C@@](N)(c1ccc(Cl)cc1)c1ccc2c(c1)c(-c1cccc(Cl)c1)cc(=O)n2C [Tipifarnib] (top concentration 10000 nM) | 6.8
29 | COc1ccccc1S(=O)(=O)Nc1ccc2c(c1)CN(C)C(=O)N2 [PFI-1] (top concentration 30000 nM) | -0.9
30 | Cc1cn(-c2cc(NC(=O)c3ccc(C)c(Nc4nccc(-c5cnccn5)n4)c3)cc(C(F)(F)F)c2)cn1 [Radotinib] (top concentration 10000 nM) | 1.2
31 | CC[C@H](Nc1ncnc2[nH]cnc12)c1nc2cccc(F)c2c(=O)n1-c1ccccc1 [Idelalisib] (top concentration 10000 nM) | -1.36
32 | Cc1noc2c1-c1ccccc1C(c1ccc(Cl)cc1)=N[C@H]2CC(N)=O [CPI-0610] (top concentration 10000 nM) | -2.6
33 | C=C(c1ccc(C(=O)O)cc1)c1cc2c(cc1C)C(C)(C)CCC2(C)C [Bexarotene] (top concentration 10000 nM) | 2.2
34 | CC1(COc2ccc3c(c2)ncn3-c2ccc3cccc(N4CCC(N)CC4)c3n2)COC1 [Crenolanib] (top concentration 10000 nM) | -4.02
35 | O=C(Nc1cc(Oc2cc(F)c(NC(=O)C3(C(=O)Nc4ccc(F)cc4)CC3)cc2F)ccn1)C1CC1 [Altiratinib] (top concentration 10000 nM) | 0.24
36 | O=C(Nc1ccncc1)C(=O)c1cn(Cc2ccc(Cl)cc2)c2ccccc12 [Indibulin] (top concentration 10000 nM) | 9.64
37 | Cc1ncc(-c2ccnc(Nc3ccc(S(C)(=O)=O)cc3)n2)n1C(C)C [AZD-5438] (top concentration 10000 nM) | -5.46
38 | NC[C@@](O)(c1ccc(Cl)cc1)c1ccc(-c2cn[nH]c2)cc1 (top concentration 10000 nM) | -0.42
39 | Cn1c(Nc2ccc(C(F)(F)F)cc2)nc2cc(Oc3ccnc(-c4ncc(C(F)(F)F)[nH]4)c3)ccc21 [NVP-RAF265] (top concentration 1000 nM) | 3.48
40 | CNCc1ccc(-c2[nH]c3cc(F)cc4c3c2CCNC4=O)cc1 [Rucaparib] (top concentration 10000 nM) | -0.58
41 | O=C(CCCCCCC(=O)Nc1ccc([C@H]2O[C@@H](CSc3nc(-c4ccccc4)c(-c4ccccc4)o3)C[C@@H](c3ccc(CO)cc3)O2)cc1)NO [Tubacin] (top concentration 10000 nM) | 8.34
42 | N#CCNC(=O)c1ccc(-c2ccnc(Nc3ccc(N4CCOCC4)cc3)n2)cc1 [Momelotinib] (top concentration 10000 nM) | -4.72
43 | Nc1cccc2c1CN(C1CCC(=O)NC1=O)C2=O (stereo not given) [Lenalidomide] (top concentration 100000 nM) | -2.28
44 | CCN1CCN(Cc2ccc(Nc3ncc(F)c(-c4cc(F)c5nc(C)n(C(C)C)c5c4)n3)nc2)CC1 [Abemaciclib] (top concentration 2500 nM) | -1.96
45 | Cc1cc(Nc2ncc(Cl)c(Nc3ccccc3S(=O)(=O)C(C)C)n2)c(OC(C)C)cc1C1CCNCC1 [Ceritinib] (top concentration 2500 nM) | -3.44
